Source: publication PMC8401035, “Synthesis and In Vitro Characterization of Glycopeptide Drug Candidates Related to PACAP1–23” (Molecules, 2021)
Where two headings read alike, the source gives them in different places. Non-standard residues stand in square brackets, D forms with d. Residues, ends and D or L forms follow the SMILES beside them. *: point of attachment. X1 = OC[C@H]1O[C@@H](O[C@H]2[C@H](O)[C@@H](O)[C@H](*)O[C@@H]2CO)[C@H](O)[C@@H](O)[C@H]1O; Nva = CCC[C@H](N)C(=O)O; Sar = CNCC(=O)O

Tests used:
human VPAC1 = biological target: T1, human VPAC1 (Homo sapiens, UniProt P32241); experiment: cAMP accumulation assay in VPAC1-CHO cells; conditions: for Emax: read-out: VPAC1 EMAX
T1 sequence (P32241 31-457): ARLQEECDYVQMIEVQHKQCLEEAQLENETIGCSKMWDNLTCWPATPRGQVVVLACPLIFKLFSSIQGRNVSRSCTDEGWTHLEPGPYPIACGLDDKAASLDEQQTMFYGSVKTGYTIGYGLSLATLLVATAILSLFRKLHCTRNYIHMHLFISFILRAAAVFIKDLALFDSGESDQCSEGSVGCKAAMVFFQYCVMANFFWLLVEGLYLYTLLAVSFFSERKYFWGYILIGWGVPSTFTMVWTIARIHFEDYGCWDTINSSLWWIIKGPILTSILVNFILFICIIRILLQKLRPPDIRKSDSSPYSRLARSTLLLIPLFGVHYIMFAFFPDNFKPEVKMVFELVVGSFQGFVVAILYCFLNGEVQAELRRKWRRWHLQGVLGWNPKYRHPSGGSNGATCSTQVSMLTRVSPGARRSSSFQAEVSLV

human PAC1 = biological target: T2, human PAC1 (Homo sapiens, UniProt P41586); experiment: cAMP accumulation assay in PAC1-CHO cells; format: cell-based; conditions: for EC50: cAMP stimulation, CHO cells stably expressing human PAC1, 500 μM IBMX, 10 min agonist at 37 °C, 3H-cAMP/PKA competition read-out, Table 3, control has two values (two experiments)
T2 construct: 3xHA (N)
T2 sequence (P41586 21-468): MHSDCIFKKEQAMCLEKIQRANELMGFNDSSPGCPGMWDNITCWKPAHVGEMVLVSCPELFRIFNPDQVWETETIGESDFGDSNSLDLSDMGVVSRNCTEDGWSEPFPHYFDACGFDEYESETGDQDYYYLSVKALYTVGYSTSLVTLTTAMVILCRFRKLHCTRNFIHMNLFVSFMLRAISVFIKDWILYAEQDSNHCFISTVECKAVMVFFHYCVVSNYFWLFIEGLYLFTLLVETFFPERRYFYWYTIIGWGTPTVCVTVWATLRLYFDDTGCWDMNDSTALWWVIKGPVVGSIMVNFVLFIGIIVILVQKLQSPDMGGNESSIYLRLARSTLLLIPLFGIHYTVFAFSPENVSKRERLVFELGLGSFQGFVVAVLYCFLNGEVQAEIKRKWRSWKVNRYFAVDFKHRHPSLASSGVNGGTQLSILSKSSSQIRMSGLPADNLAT
Experimental: In Vitro cAMP Accumulation
(§1) DMEM:F12 (1:1)medium, incubated
(§2) Serial dilutions of different

human VPAC2 = biological target: T3, human VPAC2 (Homo sapiens, UniProt P41587); experiment: cAMP accumulation assay in VPAC2-CHO cells; format: cell-based
T3 construct: 3xHA (N)
T3 sequence (P41587 24-438): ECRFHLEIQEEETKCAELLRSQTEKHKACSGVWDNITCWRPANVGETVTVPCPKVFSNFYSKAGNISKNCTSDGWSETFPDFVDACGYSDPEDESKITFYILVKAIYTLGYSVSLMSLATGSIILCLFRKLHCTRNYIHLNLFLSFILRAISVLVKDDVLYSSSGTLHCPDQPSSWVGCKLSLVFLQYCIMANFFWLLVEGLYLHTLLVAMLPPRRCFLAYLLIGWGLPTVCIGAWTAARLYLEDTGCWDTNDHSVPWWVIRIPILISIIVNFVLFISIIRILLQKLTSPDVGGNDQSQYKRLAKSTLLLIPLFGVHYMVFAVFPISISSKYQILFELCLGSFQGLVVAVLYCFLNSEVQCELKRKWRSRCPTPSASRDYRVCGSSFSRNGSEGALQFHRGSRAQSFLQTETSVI
Experimental: as §1, §2

[1] = HA-VPAC2-CHO passage #28, 20,000 cells/well, dilutions from 10 uM, single experiment in duplicate, supplement page S13, read-out: VPAC2-CHO EC50(nM), supplement curve fit
[2] = cAMP stimulation, CHO cells stably expressing human VPAC2, 500 μM IBMX, 10 min agonist at 37 °C, Table 3, NC = No convergence, read-out: VPAC2 EC50

Row | SMILES | EC50 (human VPAC1) | Emax (human VPAC1) | Emax (human PAC1) | EC50 (human PAC1) | Emax (human VPAC2) | EC50 (human VPAC2; [1]) | selectivity for PAC1 over VPAC1 (human PAC1; ratio of cAMP EC50 values (VPAC1/PAC1)) | selectivity for PAC1 over VPAC2 (human PAC1; ratio of cAMP EC50 values (VPAC2/PAC1)) | EC50 (human VPAC2; [2])
1 | CCC[C@H](NC(=O)[C@H](CCC(N)=O)NC(=O)[C@H](CCCCN)NC(=O)[C@H](CCCNC(=N)N)NC(=O)[C@H](Cc1ccc(O)cc1)NC(=O)[C@H](CCCNC(=N)N)NC(=O)[C@H](CO)NC(=O)[C@H](Cc1ccc(O)cc1)NC(=O)[C@H](CO)NC(=O)[C@H](CC(=O)O)NC(=O)[C@@H](NC(=O)[C@H](Cc1ccccc1)NC(=O)[C@@H](NC(=O)CNC(=O)[C@H](CC(=O)O)NC(=O)[C@H](CO)NC(=O)[C@@H](N)Cc1c[nH]cn1)[C@@H](C)CC)[C@@H](C)O)C(=O)N[C@@H](C)C(=O)N[C@H](C(=O)N[C@@H](CCCCN)C(=O)N[C@@H](CCCCN)C(=O)N[C@@H](Cc1ccc(O)cc1)C(=O)N[C@@H](CC(C)C)C(=O)N[C@@H](CO)C(N)=O)C(C)C [Compound 1] | 5.2 nM | 42% | 198% | 2.2 nM | 111% | 576 nM |  |  | 
2 | CCC[C@H](NC(=O)[C@H](CCC(N)=O)NC(=O)[C@H](CCCCN)NC(=O)[C@H](CCCNC(=N)N)NC(=O)[C@H](Cc1ccc(O)cc1)NC(=O)[C@H](CCCNC(=N)N)NC(=O)[C@H](CO)NC(=O)[C@H](Cc1ccc(O)cc1)NC(=O)[C@H](CO)NC(=O)[C@H](CC(=O)O)NC(=O)[C@@H](NC(=O)[C@H](Cc1ccccc1)NC(=O)[C@@H](NC(=O)CNC(=O)[C@H](CC(=O)O)NC(=O)[C@H](CO)NC(=O)[C@@H](N)Cc1c[nH]cn1)[C@@H](C)CC)[C@@H](C)O)C(=O)N[C@@H](C)C(=O)N[C@H](C(=O)N[C@@H](CCCCN)C(=O)N[C@@H](CCCCN)C(=O)N[C@@H](Cc1ccc(O)cc1)C(=O)N[C@@H](CC(C)C)C(=O)N[C@@H](CO[C@@H]1O[C@H](CO)[C@@H](O)[C@H](O)[C@H]1O)C(N)=O)C(C)C [Compound 2] | 37 nM | 104% | 181% | 0.64 nM | 110% | 577 nM | ~ 58 fold | ~ 886 fold | 
3 | CCC[C@H](NC(=O)[C@H](CCC(N)=O)NC(=O)[C@H](CCCCN)NC(=O)[C@H](CCCNC(=N)N)NC(=O)[C@H](Cc1ccc(O)cc1)NC(=O)[C@H](CCCNC(=N)N)NC(=O)[C@H](CO)NC(=O)[C@H](Cc1ccc(O)cc1)NC(=O)[C@H](CO)NC(=O)[C@H](CC(=O)O)NC(=O)[C@@H](NC(=O)[C@H](Cc1ccccc1)NC(=O)[C@@H](NC(=O)CNC(=O)[C@H](CC(=O)O)NC(=O)[C@H](CO)NC(=O)[C@@H](N)Cc1c[nH]cn1)[C@@H](C)CC)[C@@H](C)O)C(=O)N[C@@H](C)C(=O)N[C@H](C(=O)N[C@@H](CCCCN)C(=O)N[C@@H](CCCCN)C(=O)N[C@@H](Cc1ccc(O)cc1)C(=O)N[C@@H](CC(C)C)C(=O)N[C@@H](CO[C@@H]1O[C@H](CO)[C@@H](O)[C@H](O)[C@H]1O)C(=O)N[C@@H](CO[C@@H]1O[C@H](CO)[C@@H](O)[C@H](O)[C@H]1O)C(N)=O)C(C)C [Compound 3] | 26 nM | 147% | 152% | 1.9 nM | 128% |  |  |  | 7370 nM

The remaining lines, values ahead:

Row | EC50 (human VPAC1) | Emax (human VPAC1) | Emax (human PAC1) | EC50 (human PAC1) | Emax (human VPAC2) | EC50 (human VPAC2; [1]) | selectivity for PAC1 over VPAC1 (human PAC1; ratio of cAMP EC50 values (VPAC1/PAC1)) | selectivity for PAC1 over VPAC2 (human PAC1; ratio of cAMP EC50 values (VPAC2/PAC1)) | EC50 (human VPAC2; [2]) | SMILES
4 | 21 nM | 118% | 174% | 1.8 nM | 169% |  |  |  | 1940 nM | CCC[C@H](NC(=O)[C@H](CCC(N)=O)NC(=O)[C@H](CCCCN)NC(=O)[C@H](CCCNC(=N)N)NC(=O)[C@H](Cc1ccc(O)cc1)NC(=O)[C@H](CCCNC(=N)N)NC(=O)[C@H](CO)NC(=O)[C@H](Cc1ccc(O)cc1)NC(=O)[C@H](CO)NC(=O)[C@H](CC(=O)O)NC(=O)[C@@H](NC(=O)[C@H](Cc1ccccc1)NC(=O)[C@@H](NC(=O)CNC(=O)[C@H](CC(=O)O)NC(=O)[C@H](CO)NC(=O)[C@@H](N)Cc1c[nH]cn1)[C@@H](C)CC)[C@@H](C)O)C(=O)N[C@@H](C)C(=O)N[C@H](C(=O)N[C@@H](CCCCN)C(=O)N[C@@H](CCCCN)C(=O)N[C@@H](Cc1ccc(O)cc1)C(=O)N[C@@H](CC(C)C)C(=O)N[C@@H](CO[C@@H]1O[C@H](CO)[C@@H](O[C@@H]2O[C@H](CO)[C@H](O)[C@H](O)[C@H]2O)[C@H](O)[C@H]1O)C(N)=O)C(C)C [Compound 4]
5 | 38 nM | 124% | 181% | 7 nM | 139% |  |  |  | 321 nM | CCC[C@H](NC(=O)[C@H](CCC(N)=O)NC(=O)[C@H](CCCCN)NC(=O)[C@H](CCCNC(=N)N)NC(=O)[C@H](Cc1ccc(O)cc1)NC(=O)[C@H](CCCNC(=N)N)NC(=O)[C@H](CO)NC(=O)[C@H](Cc1ccc(O)cc1)NC(=O)[C@H](CO)NC(=O)[C@H](CC(=O)O)NC(=O)[C@@H](NC(=O)[C@H](Cc1ccccc1)NC(=O)[C@@H](NC(=O)[C@H](C)NC(=O)[C@H](CC(=O)O)NC(=O)[C@H](CO)NC(=O)[C@@H](N)Cc1c[nH]cn1)[C@@H](C)CC)[C@@H](C)O)C(=O)N[C@@H](C)C(=O)N[C@H](C(=O)N[C@@H](CCCCN)C(=O)N[C@@H](CCCCN)C(=O)N[C@@H](Cc1ccc(O)cc1)C(=O)N[C@@H](CC(C)C)C(=O)N[C@@H](CO[C@@H]1O[C@H](CO)[C@@H](O[C@@H]2O[C@H](CO)[C@H](O)[C@H](O)[C@H]2O)[C@H](O)[C@H]1O)C(N)=O)C(C)C [Compound 5]
6 | 195 nM | 107% | 134% | 67 nM |  |  |  |  |  | CCC[C@H](NC(=O)[C@H](CCC(N)=O)NC(=O)[C@H](CCCCN)NC(=O)[C@H](CCCNC(=N)N)NC(=O)[C@H](Cc1ccc(O)cc1)NC(=O)[C@H](CCCNC(=N)N)NC(=O)[C@H](CO)NC(=O)[C@H](Cc1ccc(O)cc1)NC(=O)[C@H](CO)NC(=O)[C@H](CC(=O)O)NC(=O)[C@@H](NC(=O)[C@H](Cc1ccccc1)NC(=O)[C@@H](NC(=O)CN(C)C(=O)[C@H](CC(=O)O)NC(=O)[C@H](CO)NC(=O)[C@@H](N)Cc1c[nH]cn1)[C@@H](C)CC)[C@@H](C)O)C(=O)N[C@@H](C)C(=O)N[C@H](C(=O)N[C@@H](CCCCN)C(=O)N[C@@H](CCCCN)C(=O)N[C@@H](Cc1ccc(O)cc1)C(=O)N[C@@H](CC(C)C)C(=O)N[C@@H](CO[C@@H]1O[C@H](CO)[C@@H](O[C@@H]2O[C@H](CO)[C@H](O)[C@H](O)[C@H]2O)[C@H](O)[C@H]1O)C(N)=O)C(C)C [Compound 6] (H-HSD[Sar]IFTDSYSRYRKQ[Nva]AVKKYLS(X1)-NH2)
